According to patent publication US12178838B2, “Synthetic neuromodulatory peptides” (Lactocore, Inc., priority 2019, dated 2024):
Like-named read-outs stand apart in the source and are kept apart here. Residues, ends and D or L forms follow the SMILES beside them.

What was measured:
[1] = system: benzodiazepine site of GABAA receptors
Procedure: The incubation mixture (final volume 0.5 ml) contained 50 μl of […]

[2] = set-up: species or system rats; conditions: rat, in vivo
Procedure: Tritium-labeled peptide FQSE (SEQ ID NO:10) was administered intranasally (i.n.) at a dose of 500 μg/kg diluted in saline. The administered sample contained 2000 pKi of tritium-labeled peptide [^3H] FQSE (SEQ ID NO:10). In 6 minutes after the administration, test samples of brain, blood and urine were obtained.
The study was carried out using tritium-labeled peptide FQSE (SEQ ID NO:10). For that, rats were administered with 2000 pKi [^3H] FQSE (SEQ ID NO:10) in dose 500 μg/kg (about 150 μg). The solutions administered to animals were prepared using saline solution. The volume of the solution for intranasal administration was 20 μl for rats.
In rat experiments, product FQSE (SEQ ID NO:10) was administered as a single, bolus, intranasal injection. Preliminarily, rats were anesthetized with chloral hydrate (300 mg/kg), and in 10 min, product FQSE (SEQ ID NO:10) was administered in volume 20 μl, in dose 500 μg/kg which contained 2000 pKi of labeled peptide [^3H]FQSE (SEQ ID NO:10). Rats were decapitated in 6 minutes after the product administration. […]
The quantitative analysis of peptides was performed with HPLC on column Kromasil C18, 4×150 mm in methanol gradient (0-40%), presence of 0.08% TEA and 0.02% HBA (heptafluorobutyric acid). The fractions containing peptide FQSE (SEQ ID NO:10) were collected, and their radioactivity was determined with liquid scintillation counting.

[3] = target: hippocampal NMDA receptors; assay: Radioligand analysis of NMDA receptors with [3H] (+) MK-801; format: binding, rat; conditions: [3H] (+) MK-801, room temperature, 2 hours; read-out: IC50 of displacement curve
Excerpt: Hippocampal plasma membranes were isolated using modified methods (Zhou et al. (1997). (2S,4R)-4-methylglutamic acid (SYM 2081): a selective, high-affinity ligand for kainate receptors. J. Pharmacol. Exp. Ther., 280(1), 422-427, LePage et al. (2005). Differential binding properties of [^3H] dextrorphan and [^3H] MK-801 in heterologously expressed NMDA receptors. Neuropharmacol., 49(1), 1-16). After decapitation, the tissue was immediately frozen in liquid nitrogen and stored in a low-temperature refrigerator at −80° C. On the day of the experiment, the hippocampi were homogenized “Teflon-glass” in a Potter homogenizer in 10 volumes of buffer No. 1 (5 mM HEPES, 4.5 mM Tris, 0.32 M Sucrose, pH 7.6). The homogenate was diluted with 50 volumes of buffer No. 2 (5 mM HEPES, 4.5 mM Tris, pH 7.6) and centrifuged at 1000 g for 10 minutes on an Optima L-70K ultracentrifuge (Beckman Coulter). The supernatant was […] and centrifuged again at 25000 g for 20 minutes. To increase the protein yield, this operation was performed twice. The resulting precipitate was resuspended in 50 volumes of buffer No. 2 and centrifuged at 8000 g for 20 minutes. […]
The IC50 value with respect to the binding of labeled ligands was determined by adding 50 μl of the test compounds to the incubation medium at final concentrations of 10^−10-10^−4 M. The volume of the incubation mixture was 500 μl. […]

Row | SMILES | Specific binding of [3H]-Flunitrazepam, relative to control levels ([1]; Diazepam 10^−6M + FQSE 10^−4M, 25 min pre-incubation + 30 min incubation, 4° C.) [%] | Specific binding of [3H]-Flunitrazepam, relative to control levels ([1]; Diazepam 10^−6M + FQSE 10^−4M, 25 min pre-incubation + 30 min incubation, 24° C.) [%] | Specific binding of [3H]-Flunitrazepam, relative to control levels ([1]; Diazepam 10^−6M + FQSE 10^−4M, 30 min incubation, 4° C.) [%] | Specific binding of [3H]-Flunitrazepam, relative to control levels ([1]; Diazepam 10^−6M + FQSE 10^−4M, 30 min incubation, 24° C.) [%] | Specific binding of [3H]-Flunitrazepam, relative to control levels ([1]; Diazepam 10^−6M + FQSE 10^−5M, 25 min pre-incubation + 30 min incubation, 4° C.) [%] | Specific binding of [3H]-Flunitrazepam, relative to control levels ([1]; Diazepam 10^−6M + FQSE 10^−5M, 25 min pre-incubation + 30 min incubation, 24° C.) [%] | Specific binding of [3H]-Flunitrazepam, relative to control levels ([1]; Diazepam 10^−6M + FQSE 10^−5M, 30 min incubation, 4° C.) [%] | Specific binding of [3H]-Flunitrazepam, relative to control levels ([1]; Diazepam 10^−6M + FQSE 10^−5M, 30 min incubation, 24° C.) [%] | blood-brain barrier penetration [2] | IC50 [3] [nM]
1 | NC(=O)CC[C@H](NC(=O)[C@@H](N)Cc1ccccc1)C(=O)N[C@@H](CO)C(=O)N[C@@H](CCC(=O)O)C(=O)O [FQSE] (H-FQSE-OH) | 101.07 | 100.58 | 100.27 | 100.95 | 101.07 | 99.78 | 100.04 | 100.70 | can penetrate blood-brain barrier | –
2 | C[C@]12N[C@H](Cc3ccccc31)c1ccccc12 [MK-801] | – | – | – | – | – | – | – | – | – | 7
